Assay results: ChEMBL document CHEMBL1201862, “PubChem BioAssay data set” (2004)
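Values below derive from 48-hour exposures of cells grown in 96-well plates, with endpoints linearly interpolated between the two concentrations bracketing the appropriate inhibition level. GI50 marks 50% less growth.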 Active and inactive are the calls of the source. Cut-off read from the data, not from the text of the source: active = GI50 up to about 1.1 µM and inactive = higher.

Experiments:
Experiment in all cases: DTP human tumour cell line panel, 48 h
[1] = test system: LOX IMVI
[2] = test system: ACHN
[3] = test system: MDA-MB-231
[4] = test system: MDA-MB-435
[5] = test system: SF-295
[6] = test system: Hs-578T
[7] = test system: OVCAR-4
[8] = test system: SF-268
[9] = test system: K562
[10] = test system: CAKI-1
[11] = test system: TK-10
[12] = test system: NCI-H522
[13] = test system: HL-60
[14] = test system: SW-620
[15] = test system: SK-MEL-28
[16] = test system: DU-145
[17] = test system: MDA-N
[18] = test system: M14

| Compound | GI50 [1] | GI50 [2] | GI50 [3] | GI50 [4] | GI50 [5] | GI50 [6] | GI50 [7] | GI50 [8] | GI50 [9] | GI50 [10] | GI50 [11] | GI50 [12] | GI50 [13] | GI50 [14] | GI50 [15] | GI50 [16] | GI50 [17] | GI50 [18] |
| --- | --- | --- | --- | --- | --- | --- | --- | --- | --- | --- | --- | --- | --- | --- | --- | --- | --- | --- |
| O=P(O)(O)CCP(=O)(O)O | > 100 µM (inactive) | > 100 µM (inactive) | > 100 µM (inactive) | > 100 µM (inactive) | > 100 µM (inactive) | > 100 µM (inactive) | > 100 µM (inactive) | > 100 µM (inactive) | > 100 µM (inactive) | > 100 µM (inactive) | > 100 µM (inactive) | > 100 µM (inactive) | 61.1 µM (inactive) | > 100 µM (inactive) | > 100 µM (inactive) | > 100 µM (inactive) | > 100 µM (inactive) | > 100 µM (inactive) |
| COP(=O)(OC)/C(=C\c1cn(C(c2ccccc2)(c2ccccc2)c2ccccc2)cn1)NC(C)=O | > 100 µM (inactive) | > 100 µM (inactive) | > 100 µM (inactive) | > 100 µM (inactive) | > 100 µM (inactive) | > 100 µM (inactive) | > 100 µM (inactive) | > 100 µM (inactive) | 51.8 µM (inactive) | > 100 µM (inactive) | > 100 µM (inactive) | > 100 µM (inactive) | 53.8 µM (inactive) | > 100 µM (inactive) | > 100 µM (inactive) | > 100 µM (inactive) | > 100 µM (inactive) | > 100 µM (inactive) |
| CCN(CC)CCn1ncc2ccc3c(c(=O)c4cccnc4n3CCN(CC)CC)c21 | 0.521 µM (active) | 0.733 µM (active) | 1.67 µM (inactive) | 0.655 µM (active) | 1.3 µM (inactive) | 2.17 µM (inactive) | 0.933 µM (active) | 1.35 µM (inactive) | 0.119 µM (active) | 3.54 µM (inactive) | 2.24 µM (inactive) | 0.845 µM (active) | 1.09 µM (active) | 0.519 µM (active) | 2.05 µM (inactive) | 2.41 µM (inactive) | 0.861 µM (active) | 1.41 µM (inactive) |
| CCOC(=O)COc1c(OC)cc(C2C3=C(COC3=O)Oc3cc4c(cc32)OCO4)cc1OC (stereo not given) | 0.625 µM (active) | 6.52 µM (inactive) | 3.03 µM (inactive) | 0.0635 µM (active) | 0.9 µM (active) | 4.51 µM (inactive) | 2.46 µM (inactive) | 13.5 µM (inactive) | 0.155 µM (active) | 3.41 µM (inactive) | 6.18 µM (inactive) | 0.479 µM (active) | 0.138 µM (active) | 0.476 µM (active) | 0.614 µM (active) | 4.5 µM (inactive) | 0.384 µM (active) | 3.03 µM (inactive) |
| Br[C@@H]1[C@H]2c3nc4ccccc4nc3[C@@H]1C[C@H]2Br | > 100 µM (inactive) | > 100 µM (inactive) | > 100 µM (inactive) | 91.2 µM (inactive) | 74.3 µM (inactive) | > 100 µM (inactive) | 32.1 µM (inactive) | > 100 µM (inactive) | 47.5 µM (inactive) | > 100 µM (inactive) | > 100 µM (inactive) | 54.8 µM (inactive) | 32.5 µM (inactive) | > 100 µM (inactive) | > 100 µM (inactive) | 53 µM (inactive) | > 100 µM (inactive) | > 100 µM (inactive) |
| O=C(Nc1ccccc1)N(CCCCN(Cc1ccccc1)C(=O)Nc1ccccc1)Cc1ccccc1 | > 100 µM (inactive) | > 100 µM (inactive) | 48.6 µM (inactive) | > 100 µM (inactive) | > 100 µM (inactive) | > 100 µM (inactive) | 75.5 µM (inactive) | > 100 µM (inactive) | 30.8 µM (inactive) | > 100 µM (inactive) | > 100 µM (inactive) | 95.3 µM (inactive) | > 100 µM (inactive) | > 100 µM (inactive) | > 100 µM (inactive) | > 100 µM (inactive) | > 100 µM (inactive) | > 100 µM (inactive) |
| O=[N+]([O-])c1ccc(-c2cc(O)c3nc4ccccc4n3c2)cc1 | > 100 µM (inactive) | 65.2 µM (inactive) | > 100 µM (inactive) | > 31.6 µM (inactive) | > 100 µM (inactive) | > 100 µM (inactive) | > 100 µM (inactive) | > 56.5 µM (inactive) | > 100 µM (inactive) | > 100 µM (inactive) | > 100 µM (inactive) | > 93.1 µM (inactive) | > 100 µM (inactive) | > 100 µM (inactive) | > 100 µM (inactive) | > 100 µM (inactive) | > 100 µM (inactive) | > 100 µM (inactive) |
| c1ccc2c(c1)CCc1[nH]c3c(c1-2)-c1ccccc1CC3 | 42.6 µM (inactive) | > 100 µM (inactive) | 33.2 µM (inactive) | 74.6 µM (inactive) | 39.5 µM (inactive) | 36.9 µM (inactive) | 61.5 µM (inactive) | 78 µM (inactive) | 36.7 µM (inactive) | 91.6 µM (inactive) | 98.6 µM (inactive) | 96.4 µM (inactive) | 27.9 µM (inactive) | 98.4 µM (inactive) | > 100 µM (inactive) | > 100 µM (inactive) | 94 µM (inactive) | 35 µM (inactive) |
| CCCN(CCC)C(=S)Sc1nc(C)nc(N2CCN(c3nc(C)nc(SC(=S)N(CCC)CCC)c3[N+](=O)[O-])CC2)c1[N+](=O)[O-] | 0.421 µM (active) | 13.9 µM (inactive) | 7.69 µM (inactive) | 4.82 µM (inactive) | 24.9 µM (inactive) | > 63.7 µM (inactive) | 17.3 µM (inactive) | 18.8 µM (inactive) | 1.11 µM (active) | 9.16 µM (inactive) | 20.1 µM (inactive) | 0.316 µM (active) | 3.1 µM (inactive) | 3.53 µM (inactive) | 15.3 µM (inactive) | 26.8 µM (inactive) | 8.45 µM (inactive) | 15.2 µM (inactive) |
| CC(=O)Nc1ccc(OC/C(N)=N/NC(=O)c2ccncc2)cc1 | > 100 µM (inactive) | > 100 µM (inactive) | > 100 µM (inactive) | > 100 µM (inactive) | > 100 µM (inactive) | > 100 µM (inactive) | > 100 µM (inactive) | > 100 µM (inactive) | > 100 µM (inactive) | > 100 µM (inactive) | > 100 µM (inactive) | > 100 µM (inactive) | > 100 µM (inactive) | > 100 µM (inactive) | > 100 µM (inactive) | > 100 µM (inactive) | > 100 µM (inactive) | > 100 µM (inactive) |
| O=C(Nc1ccn(C2CC(I)C(COC(c3ccccc3)(c3ccccc3)c3ccccc3)O2)c(=O)n1)c1ccccc1 (stereo not given) | 8.18 µM (inactive) | 12.7 µM (inactive) | 9.57 µM (inactive) | 7.36 µM (inactive) | 13.6 µM (inactive) | 3.03 µM (inactive) | 3.75 µM (inactive) | 12 µM (inactive) | 5.28 µM (inactive) | 15.6 µM (inactive) | 15.9 µM (inactive) | 11 µM (inactive) | 5.83 µM (inactive) | 14 µM (inactive) | 11.4 µM (inactive) | 11.9 µM (inactive) | 7.91 µM (inactive) | 10.8 µM (inactive) |
| CN(C)CC1CN/C(=N\C(=O)Nc2ccccc2)O1 (stereo not given) | > 100 µM (inactive) | > 100 µM (inactive) | > 100 µM (inactive) | > 100 µM (inactive) | > 100 µM (inactive) | > 100 µM (inactive) | > 100 µM (inactive) | > 100 µM (inactive) | > 100 µM (inactive) | > 100 µM (inactive) | > 100 µM (inactive) | > 100 µM (inactive) | > 100 µM (inactive) | > 100 µM (inactive) | > 100 µM (inactive) | > 100 µM (inactive) | > 100 µM (inactive) | > 100 µM (inactive) |
| Cc1c(Cc2ccccc2)c(Cc2ccccc2)c(C)[s+]1[O-] | 20.7 µM (inactive) | 32.7 µM (inactive) | 19.2 µM (inactive) | 17.7 µM (inactive) | 30.1 µM (inactive) | 37.8 µM (inactive) | 23.7 µM (inactive) | 51.1 µM (inactive) | 21.2 µM (inactive) | 22.7 µM (inactive) | 26.1 µM (inactive) | 23.7 µM (inactive) | 12.5 µM (inactive) | 26.4 µM (inactive) | 30.3 µM (inactive) | 38.3 µM (inactive) | 24.6 µM (inactive) | 21.2 µM (inactive) |
| C/C=C(\C)C(=O)OC1/C=C(\C)CC/C=C(\C)CC2OC(=O)C(C)(OC(C)=O)C12 (stereo not given) | > 100 µM (inactive) | > 100 µM (inactive) | > 100 µM (inactive) | > 100 µM (inactive) | > 100 µM (inactive) | > 100 µM (inactive) | > 100 µM (inactive) | > 100 µM (inactive) | > 100 µM (inactive) | > 100 µM (inactive) | > 100 µM (inactive) | > 100 µM (inactive) | 59.7 µM (inactive) | > 100 µM (inactive) | > 100 µM (inactive) | > 100 µM (inactive) | > 100 µM (inactive) | > 100 µM (inactive) |
| COc1cc(N(CCC#N)CCC#N)ccc1C(/N=N/c1cccc([N+](=O)[O-])c1)=N\NC(=O)c1ccc(C)cc1 | > 100 µM (inactive) | > 100 µM (inactive) | > 100 µM (inactive) | > 100 µM (inactive) | > 100 µM (inactive) | > 100 µM (inactive) | 53.7 µM (inactive) | > 100 µM (inactive) | 73.5 µM (inactive) | > 100 µM (inactive) | 31.7 µM (inactive) | 26.5 µM (inactive) | 10.8 µM (inactive) | > 100 µM (inactive) | > 100 µM (inactive) | > 100 µM (inactive) | 84.5 µM (inactive) | > 100 µM (inactive) |
